What all share (assay type): cell-based
The subject of test [1] is Acinetobacter baumannii. The method in brief: (§1)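 MIC (μg/mL) from susceptibility testing; up to nine strains per species, incl. resistant and Polymyxin-elevated-MIC strains.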
Test [2] deals with Escherichia coli. In short, it runs like this:
as §1

The test system of test [3] is Klebsiella pneumoniae. The method in brief: as §1
Test [4] deals with Pseudomonas aeruginosa. In short, it runs like this:
as §1

Converted amounts (≈) assume the structure as drawn. Where two headings read alike, the source gives them in different places. Numbered stars: 1 amine (or outer) side, 2 acyl side, 3 side chain; on linkers, the order of the positions; unused ones are H or OH. Bridge positions count the residues as written; N and C are the ends. Square brackets hold non-standard residues; d marks the D form. Peptide text beside a SMILES is read from it. ξ: configuration not given here. X5 = CCCCCCCCc1ccc(C[C@@H](N[*:1])C(=O)[*:2])cc1; Thr(3ξ) = CC(O)[C@H](N)C(=O)O; Dab = NCC[C@H](N)C(=O)O; Dap = NC[C@H](N)C(=O)O

With `CCCCCCCCc1ccc(C[C@H]2NC(=O)[C@H](CCN)NC(=O)[C@@H](NC(=O)[C@H](CN)NC(=O)[C@@H](NC(=O)[C@@H](N)CCN)C(C)O)CCNC(=O)[C@H]([C@@H](C)O)NC(=O)[C@H](CCN)NC(=O)[C@H](CCN)NC(=O)[C@H](CC(C)C)NC2=O)cc1` (stereo partly drawn) [Example 29, L-Dab-L-Thr-L-Dap-polymyxin [D-(4-octyl Phe)]-6 heptapeptide] (H-[Dab][Thr(3ξ)][Dap][Dab][Dab][X5]L[Dab][Dab]T; lactam 4-C), in test [1], the “MIC A. baumanii ATCC BAA-747” value amounted to 4 µg/mL (≈ 3.44 µM) and the “MIC A. baumanii NCTC 13424” value came to 4 µg/mL (≈ 3.44 µM). In test [2], the “MIC E. coli 058” value is 32 µg/mL (≈ 27.6 µM) and the “MIC E. coli ATCC 25922” value is 2 µg/mL (≈ 1.72 µM). In addition, the “MIC K. pneumoniae 065” value in test [3] is greater than 64 µg/mL. In test [4], the “MIC P. aeruginosa ATCC 27853” value came to 4 µg/mL (≈ 3.44 µM) and the “MIC P. aeruginosa CCUG 59347” value amounted to 8 µg/mL (≈ 6.89 µM).

As to `CCCCCCCCC1CNCC1C(=O)N[C@H](C(=O)N[C@@H](CCN)C(=O)N[C@H]1CCNC(=O)[C@H]([C@@H](C)O)NC(=O)[C@H](CCN)NC(=O)[C@H](CCN)NC(=O)[C@H](CC(C)C)NC(=O)[C@@H](Cc2ccc(-c3ccccc3)cc2)NC(=O)[C@H](CCN)NC1=O)C(C)O` (single isomer, unassigned; isomer 1) [Example 7, trans-4-octylpyrrolidine-3-carbonyl polymyxin [D-(4-phenyl)Phe]-6] nonapeptide. Isomer 1], in test [1], the “MIC A. baumanii 053” value was 8 µg/mL (≈ 6.41 µM), the “MIC A. baumanii 056” value was found to be 4 µg/mL (≈ 3.2 µM) and the “MIC A. baumanii ATCC BAA-747” value was determined as 1 µg/mL (≈ 0.801 µM). Further, in test [2], the “MIC E. coli 058” value stood at 2 µg/mL (≈ 1.6 µM), the “MIC E. coli 059” value was 1 µg/mL (≈ 0.801 µM), the “MIC E. coli 060” value is 4 µg/mL (≈ 3.2 µM) and the “MIC E. coli 061” value came out at 8 µg/mL (≈ 6.41 µM). Besides, in test [2], the “MIC E. coli ATCC 25922” value stood at 1 µg/mL (≈ 0.801 µM). In test [3], the “MIC K. pneumoniae 062” value is 16 µg/mL (≈ 12.8 µM), the “MIC K. pneumoniae 063” value stood at 32 µg/mL (≈ 25.6 µM), the “MIC K. pneumoniae 064” value amounted to 8 µg/mL (≈ 6.41 µM) and the “MIC K. pneumoniae 065” value was 1 µg/mL (≈ 0.801 µM). Besides, in test [3], the “MIC K. pneumoniae 066” value was determined as 4 µg/mL (≈ 3.2 µM), the “MIC K. pneumoniae 067” value was determined as 32 µg/mL (≈ 25.6 µM) and the “MIC K. pneumoniae ATCC 4352” value is 1 µg/mL (≈ 0.801 µM). In test [4], the “MIC P. aeruginosa 068” value was found to be 2 µg/mL (≈ 1.6 µM) and the “MIC P. aeruginosa 070” value stood at 2 µg/mL (≈ 1.6 µM).

As to `CC(C)C[C@@H]1NC(=O)[C@@H](CC2CCCCC2)NC(=O)[C@H](CCN)NC(=O)[C@@H](NC(=O)[C@H](CCN)NC(=O)[C@@H](NC(=O)CC(CN)C2CCCCC2)[C@@H](C)O)CCNC(=O)[C@H]([C@@H](C)O)NC(=O)[C@H](CCN)NC(=O)[C@H](CCN)NC1=O` (single isomer, unassigned; isomer 2) [Example 87, 4-amino-3-cyclohexylbutanoyl polymyxin [D-cyclohexylalanine-6]nonapeptide. Isomer 2], the “MIC A. baumanii 053” value in test [1] (strain 053) is 64 µg/mL (≈ 56.3 µM). Further, the “MIC A. baumanii 056” value in test [1] (strain 056) was determined as 64 µg/mL (≈ 56.3 µM). In addition, in test [1] (strain ATCC BAA-747), the “MIC A. baumanii ATCC BAA-747” value is 0.25 µg/mL (≈ 0.22 µM). Further, in test [1] (strain NCTC 13424), the “MIC A. baumanii NCTC 13424” value worked out at 0.125 µg/mL (≈ 0.11 µM). In test [2] (strain 058), the “MIC E. coli 058” value stood at 4 µg/mL (≈ 3.52 µM). Also, the “MIC E. coli 061” value in test [2] (strain 061) was found to be 16 µg/mL (≈ 14.1 µM). The “MIC E. coli ATCC 25922” value in test [2] (strain ATCC 25922) was 0.125 µg/mL (≈ 0.11 µM). In addition, the “MIC E. coli NCTC 9001” value in test [2] (strain NCTC 9001) came out at 0.125 µg/mL (≈ 0.11 µM). The “MIC K. pneumoniae 063” value in test [3] (strain 063) was 16 µg/mL (≈ 14.1 µM). Also, the “MIC K. pneumoniae 065” value in test [3] (strain 065) is 0.5 µg/mL (≈ 0.44 µM). Besides, in test [3] (strain ATCC 13882), the “MIC K. pneumoniae ATCC 13882” value came out at 0.25 µg/mL (≈ 0.22 µM). For the same compound, in test [4] (strain 068), the “MIC P. aeruginosa 068” value came to 2 µg/mL (≈ 1.76 µM). Moreover, in test [4] (strain 070), the “MIC P. aeruginosa 070” value was 8 µg/mL (≈ 7.04 µM). Besides, in test [4] (strain ATCC 27853), the “MIC P. aeruginosa ATCC 27853” value came to 0.25 µg/mL (≈ 0.22 µM). Moreover, the “MIC P. aeruginosa CCUG 59347” value in test [4] (strain CCUG 59347) is 0.5 µg/mL (≈ 0.44 µM).

`CC(C)C[C@@H]1NC(=O)[C@@H](CC2CCCCC2)NC(=O)[C@H](CCN)NC(=O)[C@@H](NC(=O)[C@H](CCN)NC(=O)[C@@H](NC(=O)CC(CN)c2ccccc2)[C@@H](C)O)CCNC(=O)[C@H]([C@@H](C)O)NC(=O)[C@H](CCN)NC(=O)[C@H](CCN)NC1=O` (single isomer, unassigned; isomer 2) [Example 57, 4-amino-3-phenylbutanoyl polymyxin [D-cyclohexylalanine]-6 nonapeptide isomer 2]: the “MIC A. baumanii ATCC BAA-747” value in test [1] (strain ATCC BAA-747) turned out to be 1 µg/mL (≈ 0.885 µM). Moreover, the “MIC A. baumanii NCTC 13424” value in test [1] (strain NCTC 13424) worked out at 1 µg/mL (≈ 0.885 µM). For the same compound, in test [2] (strain 058), the “MIC E. coli 058” value came to 16 µg/mL (≈ 14.2 µM). Also, in test [2] (strain ATCC 25922), the “MIC E. coli ATCC 25922” value came to 0.25 µg/mL (≈ 0.221 µM). In test [3] (strain 065), the “MIC K. pneumoniae 065” value was determined as 8 µg/mL (≈ 7.08 µM). For the same compound, the “MIC K. pneumoniae ATCC 13882” value in test [3] (strain ATCC 13882) amounted to 0.25 µg/mL (≈ 0.221 µM). In addition, the “MIC P. aeruginosa ATCC 27853” value in test [4] (strain ATCC 27853) worked out at 0.25 µg/mL (≈ 0.221 µM). In addition, in test [4] (strain CCUG 59347), the “MIC P. aeruginosa CCUG 59347” value was 0.5 µg/mL (≈ 0.442 µM).

Turning to `CC(C)C[C@@H]1NC(=O)[C@@H](CC2CCCCC2)NC(=O)[C@H](CCN)NC(=O)[C@@H](NC(=O)[C@H](CN)NC(=O)[C@@H](NC(=O)CCC(N)c2ccccc2)[C@@H](C)O)CCNC(=O)[C@H]([C@@H](C)O)NC(=O)[C@H](CCN)NC(=O)[C@H](CCN)NC1=O` (single isomer, unassigned; isomer 2) [Example 61, 4-amino-4-phenylbutanoyl L-Thr-L-Dap-polymyxin [D-cyclohexylalanine]-6 heptapeptide. Isomer 2], in test [1], the “MIC A. baumanii ATCC BAA-747” value is 0.25 µg/mL (≈ 0.224 µM) and the “MIC A. baumanii NCTC 13424” value is 0.25 µg/mL (≈ 0.224 µM). Also, in test [2], the “MIC E. coli 058” value is 8 µg/mL (≈ 7.17 µM) and the “MIC E. coli ATCC 25922” value worked out at 0.25 µg/mL (≈ 0.224 µM). In test [3], the “MIC K. pneumoniae 065” value turned out to be 32 µg/mL (≈ 28.7 µM) and the “MIC K. pneumoniae ATCC 13882” value is 0.25 µg/mL (≈ 0.224 µM). For the same compound, in test [4], the “MIC P. aeruginosa ATCC 27853” value was 0.25 µg/mL (≈ 0.224 µM) and the “MIC P. aeruginosa CCUG 59347” value was determined as 0.5 µg/mL (≈ 0.448 µM).

The record behind these values is US12146004B2, “Polymyxin compounds and uses thereof” (priority 2014, dated 2024).
